Structures can show the parent of a compound that is named as a salt. Where two headings read alike, the source gives them in different places.
Tests used:
MYB mRNA = test: Splicing RT-qPCR assay, MYB canonical (CJ) and alternative (AJ) junction mRNA; type: cell-based, human; settings: Homo sapiens; for IC50: canonical junction mRNA; for AC50: alternative junction mRNA, read-out: MYB AJ (AC50, increase in AJ mRNA)
Method in brief: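 One-step RT-qPCR on cell lysates quantified CJ and AJ isoforms, normalized to PPIA for A673 or GAPDH/GUSB for K562. Cells were exposed for 24 h at 37° C to 11 concentrations in 3-fold steps up to 10 uM, with DMSO ≤0.25%. A673 were grown in DMEM and K562 in IMDM, both with 10% FBS.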

SMN2 mRNA = test: Splicing RT-qPCR panel, SMN2 canonical junction (CJ) mRNA; type: cell-based, human; settings: Homo sapiens, read-out: SMN2 CJ (decrease in CJ mRNA levels, IC50)
Method in brief: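 A673 cells (DMEM, 10% FBS) or K562 cells (IMDM, 10% FBS) treated 24 h at 37 °C with an 11-point 3-fold dilution, top 10 uM, DMSO ≤0.25%. Canonical-junction mRNA quantified in lysates by RT-qPCR, normalised to GAPDH, GUSB or PPIA and to DMSO (2^−ΔΔCt), then converted to % response.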

K562 cells = test: Cell viability, Cell Titer Glo 2.0 assay, K562; settings: 72 hours
[1] = qPCR panel, read-out: MYB CJ (decrease in CJ mRNA levels, IC50)
[2] = RT-qPCR, A673 or K562 cells, 24 hours treatment
[3] = RT-qPCR, A673 or K562 cells, 24 hours treatment, read-out: MYB CJ (IC50, decrease in CJ mRNA)

SMILES	IC50 (MYB mRNA; [1]) [nM]	AC50 (MYB mRNA; [2]) [nM]	IC50 (MYB mRNA; [3]) [nM]	IC50 (SMN2 mRNA) [nM]	Effect on Cell Viability, K562 (K562 cells)
C[C@H]1CN(c2cnc3nc(-c4cc5cn(C)nc5cc4O)cc(Cl)c3c2)C[C@H](C)N1 [Compound 242]	< 100	< 100	< 100	< 100	A (<100 nM)
C[C@@H]1CN(c2cnc3nc(-c4cc5cn(C)nc5cc4O)cc(Cl)c3c2)C[C@@H](C)N1 [Compound 243, 5-{4-chloro-6-[(3R,5R)-3,5-dimethylpiperazin-1-yl]-1,8-naphthyridin-2-yl}-2-methylindazol-6-ol hydrochloride]	100 to 1000	100 to 1000	100 to 1000	< 100	B (100-1000 nM)
C[C@H]1CN(c2cnc3nc(-c4cc(F)c5nn(C)cc5c4)cc(Cl)c3c2)C[C@H](C)N1 [Compound 250]	< 100	< 100	< 100	< 100	A (<100 nM)
C[C@@H]1CN(c2cnc3nc(-c4cc(F)c5nn(C)cc5c4)cc(Cl)c3c2)C[C@@H](C)N1 [Compound 251]	100 to 1000	100 to 1000	100 to 1000	< 100	B (100-1000 nM)
Cc1c(O)c(-c2cc(-c3nnc[nH]3)c3cc(N4C[C@@H](C)N[C@@H](C)C4)cnc3n2)cc2cn(C)nc12 [Compound 261, 5-{6-[(3R,5S)-3,5-dimethylpiperazin-1-yl]-4-(4H-1,2,4-triazol-3-yl)-1,8-naphthyridin-2-yl}-2,7-dimethylindazol-6-ol]	< 100	> 10000	1000 to 10000	< 100	D (greater than 10 μM)
C[C@@H]1CN(c2cnc3nc(-c4cc5cn(C)nc5c(F)c4O)cc(C#N)c3c2)C[C@H](C)N1 [Compound 266, 6-[(3R,5S)-3,5-dimethylpiperazin-1-yl]-2-(7-fluoro-6-hydroxy-2-methylindazol-5-yl)-1,8-naphthyridine-4-carbonitrile hydrochloride]	< 100	100 to 1000	< 100	< 100	A (<100 nM)
CN[C@@H]1CCN(c2cnc3nc(-c4cc5cn(C)nc5c(F)c4O)cc(Cl)c3c2)C1 [Compound 271]	< 100	< 100	< 100	< 100	A (<100 nM)
